Reference: PubChem BioAssay AID248 (DTP/NCI, 2004)
Toxic doses and inconclusive results are not listed. Rule as the data show it: active = T/C of 150% or more; inactive = T/C below 125%.

Test system: L1210 leukemia ip in BDF1 mice, survival T/C
Assay: NCI In Vivo Anticancer Drug Screen. Data for tumor model L1210 Leukemia (intraperitoneal) in B6D2F1 (BDF1) mice
Conditions: endpoint: mean survival time, higher = longer survival
Method in brief: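 Survival endpoint. Drug-treated group vs vehicle group, expressed as T divided by C. Tumor passaged by transplantation.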

[1] = dose: 100.0 mg/kg/injection, schedule: Q04DX002 (ip), vehicle: Klucel (hydroxypropylcellulose) (HPC)
[2] = dose: 200.0 mg/kg/injection, schedule: Q04DX002 (ip), vehicle: Klucel (hydroxypropylcellulose) (HPC)
[3] = dose: 50.0 mg/kg/injection, schedule: Q01DX001 (ip), vehicle: carboxymethylcellulose (CMC)
[4] = dose: 100.0 mg/kg/injection, schedule: Q01DX001 (ip), vehicle: carboxymethylcellulose (CMC)
[5] = dose: 200.0 mg/kg/injection, schedule: Q01DX001 (ip), vehicle: carboxymethylcellulose (CMC)
[6] = dose: 400.0 mg/kg/injection, schedule: Q01DX001 (ip), vehicle: carboxymethylcellulose (CMC)
[7] = dose: 100.0 mg/kg/injection, schedule: Q04DX003 (ip), vehicle: saline
[8] = dose: 200.0 mg/kg/injection, schedule: Q04DX003 (ip), vehicle: saline
[9] = dose: 100.0 mg/kg/injection, schedule: Q01DX009 (ip), vehicle: Klucel (hydroxypropylcellulose) (HPC)
[10] = dose: 100.0 mg/kg/injection, schedule: Q04DX003 (ip), vehicle: Klucel (hydroxypropylcellulose) (HPC)
[11] = dose: 200.0 mg/kg/injection, schedule: Q01DX009 (ip), vehicle: Klucel (hydroxypropylcellulose) (HPC)
[12] = dose: 200.0 mg/kg/injection, schedule: Q04DX003 (ip), vehicle: Klucel (hydroxypropylcellulose) (HPC)
[13] = dose: 400.0 mg/kg/injection, schedule: Q01DX009 (ip), vehicle: Klucel (hydroxypropylcellulose) (HPC)
[14] = dose: 400.0 mg/kg/injection, schedule: Q04DX003 (ip), vehicle: Klucel (hydroxypropylcellulose) (HPC)
[15] = dose: 100.0 mg/kg/injection, schedule: Q04DX002 (ip), vehicle: saline with Tween-80
[16] = dose: 100.0 mg/kg/injection, schedule: Q04DX003 (ip), vehicle: saline with Tween-80
[17] = dose: 200.0 mg/kg/injection, schedule: Q04DX003 (ip), vehicle: saline with Tween-80
[18] = dose: 400.0 mg/kg/injection, schedule: Q04DX003 (ip), vehicle: saline with Tween-80

Measured: T/C

O=C(Nc1ccccc1)Oc1c(Cl)c(Cl)c(Cl)c(Cl)c1Cl
inactive: [1] 98 % of control | [2] 104 % of control

O=C1C(=O)N2CCCCc3cccc1c32
inactive: [3] 96 % of control | [4] 108 % of control | [5] 100 % of control | [6] 101 % of control

CCC[N+](C)(C)CCOC(=O)C1C2CC3OC(=O)C1C3C2 (stereo unspecified)
inactive: [7] 97 % of control | [8] 95 % of control

CC(=O)C(C)C(O)c1ccc([N+](=O)[O-])cc1 (stereo unspecified)
inactive: [9] 91 % of control | [10] 100 % of control | [11] 91 % of control | [12] 98 % of control | [13] 92 % of control | [14] 98 % of control

CC1CC2(CCC1=O)OCCO2 (stereo unspecified)
inactive: dose: 100.0 mg/kg/injection, schedule: Q01DX001 (ip), vehicle: other 95 % of control | dose: 200.0 mg/kg/injection, schedule: Q01DX001 (ip), vehicle: other 95 % of control | dose: 400.0 mg/kg/injection, schedule: Q01DX001 (ip), vehicle: other 96 % of control

O=C(Nc1ccc(CCO)cc1)Nc1ccccc1F
inactive: [9] 97 % of control | [11] 88 % of control | [13] 111 % of control

CCCCCCC1C/C(=C/N(C)C)C(=O)O1 (stereo unspecified)
inactive: [1] 90 % of control | [2] 90 % of control | dose: 400.0 mg/kg/injection, schedule: Q04DX002 (ip), vehicle: Klucel (hydroxypropylcellulose) (HPC) 93 % of control

O=C1CCCC/C1=C\Sc1ccccc1
inactive: dose: 100.0 mg/kg/injection, schedule: Q04DX002 (ip), vehicle: saline 95 % of control | dose: 200.0 mg/kg/injection, schedule: Q04DX002 (ip), vehicle: saline 98 % of control | dose: 400.0 mg/kg/injection, schedule: Q04DX002 (ip), vehicle: saline 88 % of control

CCCCN(CCCC)C(=N)C(=N)N(CCCC)CCCC
inactive: dose: 50.0 mg/kg/injection, schedule: Q04DX002 (ip), vehicle: saline with Tween-80 100 % of control | [15] 100 % of control

CCOc1ccc(/C=N/Nc2ccc([N+](=O)[O-])cc2)cc1OC
inactive: dose: 25.0 mg/kg/injection, schedule: Q01DX009 (ip), vehicle: saline sonified 93 % of control | dose: 37.5 mg/kg/injection, schedule: Q01DX009 (ip), vehicle: saline with Tween-80 91 % of control | dose: 50.0 mg/kg/injection, schedule: Q01DX009 (ip), vehicle: saline sonified 103 % of control | dose: 75.0 mg/kg/injection, schedule: Q01DX009 (ip), vehicle: saline with Tween-80 93 % of control | dose: 100.0 mg/kg/injection, schedule: Q01DX009 (ip), vehicle: saline sonified 98 % of control | [16] 90 % of control | dose: 150.0 mg/kg/injection, schedule: Q01DX009 (ip), vehicle: saline with Tween-80 96 % of control | [17] 97 % of control | dose: 400.0 mg/kg/injection, schedule: Q04DX003 (ip), vehicle: saline sonified 88 % of control | [18] 87 % of control

CC(=O)NC1CCC(/C=C(\C#N)C2CCC(C)CC2)CC1 (stereo unspecified)
inactive: [15] 87 % of control | dose: 200.0 mg/kg/injection, schedule: Q04DX002 (ip), vehicle: saline with Tween-80 93 % of control

CN(C)c1ccc2c(c1)oc(=O)c1ccccc12
inactive: [3] 93 % of control | [4] 104 % of control | [5] 112 % of control | [6] 91 % of control

CCC/C(C)=N\O
inactive: [16] 102 % of control | [17] 111 % of control | [18] 100 % of control

O=C1OC(=O)C2C1C1C=CC2C1(c1ccccc1)c1ccccc1 (stereo unspecified)
inactive: [4] 96 % of control | [5] 96 % of control | [6] 96 % of control

O=S1OCCS1 (stereo unspecified)
inactive: dose: 13.0 mg/kg/injection, schedule: Q01DX Z (sc), vehicle: saline 100 % of control | dose: 36.0 mg/kg/injection, schedule: Q01DX Z (sc), vehicle: saline 100 % of control

CC1CN=C(c2ccc(NC(=O)Nc3ccc(C4=NCC(C)N4)cc3)cc2)N1 (stereo unspecified)
inactive: dose: 0.62 mg/kg/injection, schedule: Q01DX Z (ip), vehicle: saline 109 % of control | dose: 1.25 mg/kg/injection, schedule: Q01DX Z (ip), vehicle: saline 114 % of control | dose: 2.5 mg/kg/injection, schedule: Q01DX Z (ip), vehicle: saline 118 % of control | dose: 5.0 mg/kg/injection, schedule: Q01DX Z (ip), vehicle: saline 111 % of control

O=C1c2ccccc2CC1(c1ccccc1)c1ccccc1
inactive: [4] 91 % of control | [5] 94 % of control | [6] 94 % of control

O=C1CCCO1
inactive: [7] 92 % of control | [8] 100 % of control | dose: 400.0 mg/kg/injection, schedule: Q04DX003 (ip), vehicle: saline 94 % of control

Cc1c(C)c(C)c(CN2CCCC2)c(C)c1C
inactive: dose: 12.5 mg/kg/injection, schedule: Q01DX005 (ip), vehicle: Klucel (hydroxypropylcellulose) (HPC) 107 % of control | dose: 12.5 mg/kg/injection, schedule: Q04DX002 (ip), vehicle: Klucel (hydroxypropylcellulose) (HPC) 109 % of control | dose: 25.0 mg/kg/injection, schedule: Q01DX005 (ip), vehicle: Klucel (hydroxypropylcellulose) (HPC) 97 % of control | dose: 25.0 mg/kg/injection, schedule: Q04DX002 (ip), vehicle: Klucel (hydroxypropylcellulose) (HPC) 86 % of control | dose: 35.0 mg/kg/injection, schedule: Q01DX009 (ip), vehicle: Klucel (hydroxypropylcellulose) (HPC) 90 % of control | dose: 50.0 mg/kg/injection, schedule: Q04DX002 (ip), vehicle: Klucel (hydroxypropylcellulose) (HPC) 112 % of control | [1] 94 % of control

O=[N+]([O-])c1ccc(/C=C/CCOc2ccccc2)cc1
inactive: [9] 98 % of control | [10] 97 % of control | [11] 96 % of control | [12] 105 % of control | [13] 91 % of control | [14] 105 % of control

CC(=O)Oc1c2c(c(CC=C(C)C)c3c1C(=O)C1=CC4CC5C(C)(C)OC(C/C=C(/C)C(=O)O)(C4=O)C15O3)OC(C)(CCC=C(C)C)C=C2 (stereo unspecified)
inactive: dose: 50.0 mg/kg/injection, schedule: Q01DX009 (ip), vehicle: Klucel (hydroxypropylcellulose) (HPC) 109 % of control | dose: 50.0 mg/kg/injection, schedule: Q04DX003 (ip), vehicle: Klucel (hydroxypropylcellulose) (HPC) 103 % of control | dose: 100.0 mg/kg/injection, schedule: Q01DX001 (ip), vehicle: Klucel (hydroxypropylcellulose) (HPC) 106 % of control | [9] 91 % of control | [10] 97 % of control | dose: 200.0 mg/kg/injection, schedule: Q01DX001 (ip), vehicle: Klucel (hydroxypropylcellulose) (HPC) 114 % of control | [12] 105 % of control | dose: 400.0 mg/kg/injection, schedule: Q01DX001 (ip), vehicle: Klucel (hydroxypropylcellulose) (HPC) 110 % of control

OCC1OC(c2[nH]nc3c([Se])ncnc23)C(O)C1O (stereo unspecified)
inactive: dose: 1.56 mg/kg/injection, schedule: Q01DX005 (ip), vehicle: saline 95 % of control | dose: 1.56 mg/kg/injection, schedule: Q01DX009 (ip), vehicle: saline 95 % of control | dose: 3.12 mg/kg/injection, schedule: Q01DX005 (ip), vehicle: saline 97 % of control | dose: 3.12 mg/kg/injection, schedule: Q01DX009 (ip), vehicle: saline 100 % of control | dose: 6.25 mg/kg/injection, schedule: Q01DX005 (ip), vehicle: saline 99 % of control | dose: 6.25 mg/kg/injection, schedule: Q01DX009 (ip), vehicle: saline 97 % of control | dose: 12.5 mg/kg/injection, schedule: Q01DX009 (ip), vehicle: saline 90 % of control

CC(=O)OC(CNCC(=O)O)C(Cl)(Cl)Cl (stereo unspecified)
inactive: dose: 100.0 mg/kg/injection, schedule: Q01DX009 (ip), vehicle: saline with Tween-80 90 % of control | dose: 200.0 mg/kg/injection, schedule: Q01DX009 (ip), vehicle: saline with Tween-80 95 % of control | dose: 400.0 mg/kg/injection, schedule: Q01DX009 (ip), vehicle: saline with Tween-80 97 % of control

COC(=O)CCC(=O)NCCc1cccc(OC)c1
inactive: [10] 97 % of control | [12] 98 % of control | [14] 92 % of control
